Among the data in US20060166985A1, “Pyrrolydin-2-one derivatives as inhibitors of thrombin and factor xa” (priority 2002, published 2006) are Ki values, retold here.

By Ki is commonly meant the dissociation constant of the complex between target and ligand, obtained from inhibition or displacement.

This assay has as its target human Thrombin (Homo sapiens, UniProt P00734). In words: In vitro assay for inhibition of Thrombin (chromogenic or fluorogenic assay). Format: biochemical. The note with it: Example 2 chromogenic assay, other Examples fluorogenic assay, read-out: thrombin inhibitory Ki.
Consider `C[C@@H](C(=O)N1CCOCC1)N1CC[C@H](NS(=O)(=O)CC2OCc3cc(Cl)ccc32)C1=O` (stereo partly drawn) [Example 66, 1-(5-chloro-1,3-dihydro-2-benzofuran-1-yl)-N-{(3S)-1-[(1S)-1-methyl-2-(4-morpholinyl)-2-oxoethyl]-2-oxo-3-pyrrolidinyl}methanesulfonamide], for which the Ki is < 50 nM.

`O=C(C(C1CCOCC1)N1CC[C@H](NS(=O)(=O)CCc2ccc(Cl)s2)C1=O)N1CCOCC1` (stereo partly drawn) [Example 67, 2-(5-chloro-2-thienyl)-N-{(3S)-1-[2-(4-morpholinyl)-2-oxo-1-(tetrahydro-2H-pyran-4-yl)ethyl]-2-oxo-3-pyrrolidinyl}ethanesulfonamide]: the Ki is < 200 nM.

`COC[C@@H](C(=O)N1CCOCC1)N1CC[C@H](NS(=O)(=O)C[C@@H]2CCc3cc(Cl)ccc32)C1=O` [Example 68, 1-[(1R)-5-chloro-2,3-dihydro-1H-inden-1-yl]-N-{(3S)-1-[(1S)-1-[(methyloxy)methyl]-2-(4-morpholinyl)-2-oxoethyl]-2-oxo-3-pyrrolidinyl}methanesulfonamide]: the Ki is < 50 nM.

As for `O=C([C@H](c1ccccc1)N1CC[C@H](NS(=O)(=O)CCc2ccc(Cl)s2)C1=O)N1CCOCC1` [Example 69, 2-(5-chloro-2-thienyl)-N-{(3S)-1-[(1S)-2-(4-morpholinyl)-2-oxo-1-phenylethyl]-2-oxo-3-pyrrolidinyl}ethanesulfonamide], the Ki is < 100 nM.

`O=C([C@H](Cc1ccc(F)cc1)N1CC[C@H](NS(=O)(=O)CCc2ccc(Cl)s2)C1=O)N1CCOCC1` [Example 70, 2-(5-chloro-2-thienyl)-N-{(3S)-1-[(1S)-1-[(4-fluorophenyl)methyl]-2-(4-morpholinyl)-2-oxoethyl]-2-oxo-3-pyrrolidinyl}ethanesulfonamide]: the Ki was < 50 nM.

In the case of `O=C([C@H](Cc1cscn1)N1CC[C@H](NS(=O)(=O)CCc2ccc(Cl)s2)C1=O)N1CCOCC1` [Example 71, 2-(5-chloro-2-thienyl)-N-{(3S)-1-[(1S)-2-(4-morpholinyl)-2-oxo-1-(1,3-thiazol-4-ylmethyl)ethyl]-2-oxo-3-pyrrolidinyl)ethanesulfonamide], the Ki was < 50 nM.

Turning to `O=C([C@H](Cc1cscn1)N1CC[C@H](NS(=O)(=O)CCc2ccc(Cl)cc2)C1=O)N1CCOCC1` [Example 72, 2-(4-chlorophenyl)-N-{(3S)-1-[(1S)-2-(4-morpholinyl)-2-oxo-1-(1,3-thiazol-4-ylmethyl)ethyl]-2-oxo-3-pyrrolidinyl}ethanesulfonamide], the inhibition constant Ki was < 200 nM.

Consider `O=C([C@H](c1cccs1)N1CC[C@H](NS(=O)(=O)CCc2ccc(Cl)s2)C1=O)N1CCOCC1` [Example 73, 2-(5-chloro-2-thienyl)-N-{(3S)-1-[(1R)-2-(4-morpholinyl)-2-oxo-1-(2-thienyl)ethyl]-2-oxo-3-pyrrolidinyl}ethanesulfonamide], for which the Ki was < 50 nM.

Turning to `O=C([C@H](c1cccs1)N1CC[C@H](NS(=O)(=O)CCc2ccc(Cl)cc2)C1=O)N1CCOCC1` [Example 74, 2-(4-chlorophenyl)-N-{(3S)-1-[(1R)-2-(4-morpholinyl)-2-oxo-1-(2-thienyl)ethyl]-2-oxo-3-pyrrolidinyl}ethanesulfonamide], the Ki was < 100 nM.

As to `CCSC[C@@H](C(=O)N1CCOCC1)N1CC[C@H](NS(=O)(=O)CCc2ccc(Cl)s2)C1=O` [Example 75, 2-(5-chloro-2-thienyl)-N-{(3S)-1-[(1R)-1-((ethylthio)methyl]-2-(4-morpholinyl)-2-oxoethyl]-2-oxo-3-pyrrolidinyl}ethanesulfonamide], the Ki is < 50 nM.

On to `N#CC[C@@H](C(=O)N1CCOCC1)N1CC[C@H](NS(=O)(=O)CCc2ccc(Cl)s2)C1=O` [Example 76, 2-(5-chloro-2-thienyl)-N-{(3S)-1-[(1S)-1-(cyanomethyl)-2-(4-morpholinyl)-2-oxoethyl]-2-oxo-3-pyrrolidinyl}ethanesulfonamide], for which the Ki is < 100 nM.

Take `O=C([C@H](Cc1ncno1)N1CC[C@H](NS(=O)(=O)CCc2ccc(Cl)s2)C1=O)N1CCOCC1` [Example 77, 2-(5-chloro-2-thienyl)-N-{(3S)-1-[(1S)-2-(4-morpholinyl)-1-(1,2,4-oxadiazol-5-ylmethyl)-2-oxoethyl]-2-oxo-3-pyrrolidinyl}ethanesulfonamide]: the inhibition constant Ki was < 10 nM.

For `Cc1noc(C[C@@H](C(=O)N2CCOCC2)N2CC[C@H](NS(=O)(=O)CCc3ccc(Cl)s3)C2=O)n1` [Example 78, 2-(5-chloro-2-thienyl)-N-{(3S)-1-[(1S)-1-[(3-methyl-1,2,4-oxadiazol-5-yl)methyl]-2-(4-morpholinyl)-2-oxoethyl]-2-oxo-3-pyrrolidinyl}ethanesulfonamide], the Ki is < 25 nM.

`Cc1noc(C[C@@H](C(=O)N2CCOCC2)N2CC[C@H](N(C)S(=O)(=O)CCc3ccc(Cl)s3)C2=O)n1` [Example 79, 2-(5-chloro-2-thienyl)-N-methyl-N-{(3S)-1-[(1S)-1-[(3-methyl-1,2,4-oxadiazol-5-yl)methyl]-2-(4-morpholinyl)-2-oxoethyl]-2-oxo-3-pyrrolidinyl}ethanesulfonamide]: the inhibition constant Ki is < 50 nM.

As to `Cn1cnc(C[C@@H](C(=O)N2CCOCC2)N2CC[C@H](NS(=O)(=O)CCc3ccc(Cl)s3)C2=O)n1` [Example 80, 2-(5-chloro-2-thienyl)-N-{(3S)-1-[(1S)-1-[(1-methyl-1H-1,2,4-triazol-3-yl)methyl]-2-(4-morpholinyl)-2-oxoethyl]-2-oxo-3-pyrrolidinyl}ethanesulfonamide], the Ki was < 50 nM.

Turning to `Cn1ncnc1C[C@@H](C(=O)N1CCOCC1)N1CC[C@H](NS(=O)(=O)CCc2ccc(Cl)s2)C1=O` [Example 81, 2-(5-chloro-2-thienyl)-N-{(3S)-1-[(1S)-1-[(1-methyl-1H-1,2,4-triazol-5-yl)methyl]-2-(4-morpholinyl)-2-oxoethyl]-2-oxo-3-pyrrolidinyl}ethanesulfonamide], the Ki is < 100 nM.

In the case of `Cc1noc(C[C@@H](C(=O)N2CCOCC2)N2CC[C@H](NS(=O)(=O)CCc3ccc(Cl)cc3)C2=O)n1` [Example 82, 2-(4-chlorophenyl)-N-{(3S)-1-[(1S)-1-[(3-methyl-1,2,4-oxadiazol-5-yl)methyl]-2-(4-morpholinyl)-2-oxoethyl]-2-oxo-3-pyrrolidinyl}ethanesulfonamide], the inhibition constant Ki is < 100 nM.

On to `CN(Cc1ccccc1)C(=O)C[C@@H](C(=O)N1CCOCC1)N1CC[C@H](NS(=O)(=O)CCc2ccc(Cl)s2)C1=O` [Example 83, (3S)-3-[(3S)-3-({[2-(5-chloro-2-thienyl)ethyl]sulfonyl)amino)-2-oxo-1-pyrrolidinyl]-N-methyl-4-(4-morpholinyl)-4-oxo-N-(phenylmethyl)butanamide], for which the Ki was < 50 nM.

As for `CC(C)OC[C@@H](C(=O)N1CCOCC1)N1CC[C@H](NS(=O)(=O)CCc2ccc(Cl)s2)C1=O` [Example 84, 2-(5-chloro-2-thienyl)-N-{(3S)-1-[(1S)-1-{[(1-methylethyl)oxy]methyl}-2-(4-morpholinyl)-2-oxoethyl]-2-oxo-3-pyrrolidinyl}ethanesulfonamide], the Ki is < 10 nM.

`CCOC[C@@H](C(=O)N1CCOCC1)N1CC[C@H](NS(=O)(=O)CCc2ccc(Cl)s2)C1=O` [Example 85, 2-(5-chloro-2-thienyl)-N-{(3S)-1-[(1S)-1-[(ethyloxy)methyl]-2-(4-morpholinyl)-2-oxoethyl]-2-oxo-3-pyrrolidinyl}ethanesulfonamide]: the Ki is < 10 nM.
